Where two headings read alike, the source gives them in different places.
Columns and labels:
HCT116 MTAP WT cells = experiment: Proliferation inhibition of HCT116 cells in vitro (CellTiter Glo); type: cell-based; settings: 6 days, 9 concentrations starting from 30 μM, read-out: Cell proliferation inhibition rate HCT116 MTAP WT IC50 (nm)
Source text: (§1) Biological Test Example 2 Proliferation Inhibition of HCT116 and HCT116 MTAP-KO Cells in Vitro
(§2) HCT116 cell line was purchased from the Chinese Academy of Sciences Cell Bank, and the MTAP gene was knocked out by CRISPR/Cas9 technology to obtain HCT116-MTAP-KO cell line.
(§3) McCoy's 5A medium (Gibco, catalog No. 16600082), fetal bovine serum (Gibco, catalog No. 10099141C), penicillin-streptomycin double antibody (Gibco, catalog No. 15140122), pancreatic enzyme (Gibco, catalog No. 25200056), CellTiter Glo assay kit (Promega, catalog No. G7572), 384-well transparent flat-bottomed black walled cell culture plate (Corning, catalog No. 3764), ultra micro sampler (Tecan, catalog No.D300e), Multimode reader (Biotek, catalog No. SynergyHTX)
(§4) 1. Cell culture: HCT116 and HCT116-MTAP-KO cells were cultured in McCoy'5A medium+10% fetal bovine serum+1% penicillin-streptomycin double antibody; to ensure that they were always in the logarithmic growth phase and the cell viability greater than 95%.
(§5) 2. Compound concentration gradient preparation: The compound to be tested was added to a 384-well plate using an ultra micro sampler, starting from 30 μM (HCT116 cells) or 3 μM (HCT116-MTAP-KO cells), and diluted with DMSO at 3 times for a total of 9 concentrations and set up three duplicate wells.
(§6) 3. Treatment of cells with compounds: Trypsin-digested HCT116 or HCT116-MTAP-KO cell suspension was added to the 384-well plates spotted with the compounds to be tested at 40 μL per well, i.e., 100 cells per well, and the final concentration of DMSO was 0.4%. The cell culture plate was incubated at 37° C. in a 5% CO2 incubator for 6 days.
(§7) 4. Detection: 20 μL of CellTiter Glo reagent was added to each well of the cell culture plate and incubated at room temperature for 30 minutes. A multimode reader was used to detect the luminescence signal at […].
(§8) The data was fitted with GraphPad Prism 8.0 software using a four parameter inhibitor-reaction model to obtain the IC50 value (half inhibitory concentration) of the test compounds.

[1] = tested on: HCT116-MTAP-KO cells (HCT116 MTAP null); experiment: Proliferation inhibition of HCT116 MTAP-KO cells in vitro (CellTiter Glo); type: cell-based; settings: 6 days, 9 concentrations starting from 3 μM, read-out: Cell proliferation inhibition rate HCT116 MTAP null IC50 (nm)
Source text: as §1, §2, §3, §4, §5, §6, §7, §8

Row | SMILES | IC50 (HCT116 MTAP WT cells; Homo sapiens, HCT-116, 144 h) | IC50 ([1]; HCT116-MTAP null, 144 h) | IC50 (HCT116 MTAP WT cells) | IC50 [1]
1 | Cc1ncc2c(N)nc3cc(F)c(C(=O)N(Cc4ccc(C(F)(F)F)cn4)C4COC4)cc3n12 [Example 158] | 1 to 10 µM | 0.1 to 1 µM | – | –
2 | Cc1ncc2c(N)nc3cc(F)c(C(=O)N4CCC(c5ccc(C(F)(F)F)cn5)C4)cc3n12 (stereo not shown) [Example 159] | 1 to 10 µM | 0.1 to 1 µM | – | –
3 | Cc1nn(C)cc1N(Cc1ccc(OC2CC2)cn1)C(=O)c1cc2c(cc1F)nc(N)c1c(C)ncn12 [Example 161] | < 0.1 µM | < 0.1 µM | – | –
4 | Cc1nn(CCO)cc1N(Cc1ccc(C(F)(F)F)cn1)C(=O)c1cc2c(cc1F)nc(N)c1c(C)ncn12 [Example 165] | 1 to 10 µM | < 0.1 µM | – | –
5 | CCOc1ccc(CN(C(=O)c2cc3c(cc2F)nc(N)c2c(C)ncn23)c2cn(C)nc2C)nc1 [Example 168] | < 0.1 µM | < 0.1 µM | – | –
6 | CCc1nn(C)cc1N(Cc1ccc(C(F)(F)F)cn1)C(=O)c1cc2c(cc1F)nc(N)c1cnc(C)n12 [Example 169] | – | – | 0.1 to 1 µM | < 0.1 µM
7 | Cc1nn(C)cc1N(Cc1ccc(OC(F)(F)F)cn1)C(=O)c1cc2c(cc1F)nc(N)c1c(C)ncn12 [Example 170] | < 0.1 µM | < 0.1 µM | – | –
8 | CCn1cc(N(Cc2ccc(OC3CC3)cn2)C(=O)c2cc3c(cc2F)nc(N)c2cnc(C)n23)c(C)n1 [Example 171] | 1 to 10 µM | < 0.1 µM | – | –
9 | Cc1nn(CC(F)F)cc1N(Cc1ccc(C(F)(F)F)cn1)C(=O)c1cc2c(cc1F)nc(N)c1cnc(C)n12 [Example 173] | 1 to 10 µM | < 0.1 µM | – | –
10 | Cc1ncc2c(N)nc3cc(F)c(C(=O)N(Cc4ccc(C(F)(F)F)cn4)c4cn(C)nc4Cl)cc3n12 [Example 175] | 1 to 10 µM | < 0.1 µM | – | –
11 | Cc1nn(C(C)C)cc1N(Cc1ccc(C(F)(F)F)cn1)C(=O)c1cc2c(cc1F)nc(N)c1cnc(C)n12 [Example 176] | 1 to 10 µM | < 0.1 µM | – | –
12 | CCn1cc(N(Cc2ccc(OC3CC3)cn2)C(=O)c2cc3c(cc2F)nc(N)c2c(C)ncn23)c(C)n1 [Example 177] | 0.1 to 1 µM | < 0.1 µM | – | –
13 | Cc1ncc2c(N)nc3cc(F)c(C(=O)N(Cc4ccc(C(F)(F)F)cn4)c4cn(C)nc4C(F)(F)F)cc3n12 [Example 178] | 1 to 10 µM | < 0.1 µM | – | –
14 | Cc1cn(C)nc1N(Cc1ccc(C(F)(F)F)cn1)C(=O)c1cc2c(cc1F)nc(N)c1cnc(C)n12 [Example 179] | 1 to 10 µM | < 0.1 µM | – | –
15 | Cc1c(N(Cc2ccc(C(F)(F)F)cn2)C(=O)c2cc3c(cc2F)nc(N)c2cnc(C)n23)cnn1CC(F)F [Example 180] | 1 to 10 µM | < 0.1 µM | – | –
16 | Cc1nn(C)cc1N(Cc1ccc(C(F)(F)F)nc1)C(=O)c1cc2c(cc1F)nc(N)c1cnc(C)n12 [Example 182] | 1 to 10 µM | < 0.1 µM | – | –
17 | Cc1nn(C)cc1N(Cc1ccc(C(F)(F)F)cn1)C(=O)c1cc2c(cn1)nc(N)c1cnc(C)n12 [Example 183] | 1 to 10 µM | < 0.1 µM | – | –
18 | CCc1nn(C)cc1N(Cc1ccc(C(F)(F)F)cn1)C(=O)c1cc2c(cc1F)nc(N)c1c(C)ncn12 [Example 184] | < 0.1 µM | < 0.1 µM | – | –
19 | Cc1ccc(N(Cc2ccc(C(F)(F)F)cn2)C(=O)c2cc3c(cc2F)nc(N)c2cnc(C)n23)c(C)n1 [Example 187] | 1 to 10 µM | < 0.1 µM | – | –
20 | Cc1cc2nc(N)c3cnc(C)n3c2cc1C(=O)N(Cc1ccc(C(F)(F)F)cn1)c1cn(C)nc1C [Example 188, 4-Amino-N-(1,3-dimethyl-1H-pyrazol-4-yl)-1,7-dimethyl-N-((5-(trifluoromethyl)pyridin-2-yl)methyl)imidazolo[1,5-a]quinoxalin-8-carboxamide] | 1 to 10 µM | < 0.1 µM | – | –
21 | Cc1nn(C)cc1N(Cc1ccc(OC2CC2)cn1)C(=O)c1cc2c(cn1)nc(N)c1cnc(C)n12 [Example 189] | 0.1 to 1 µM | < 0.1 µM | – | –
22 | Cc1nn(C)cc1N(Cc1ccc(C(F)(F)F)cn1)C(=O)c1ccc2nc(N)c3c(C)nc(C)n3c2c1 [Example 190] | 1 to 10 µM | 0.1 to 1 µM | – | –
23 | CCn1cc(N(Cc2ccc(C(F)(F)F)cn2)C(=O)c2cc3c(cn2)nc(N)c2cnc(C)n23)c(C)n1 [Example 192] | 1 to 10 µM | < 0.1 µM | – | –
24 | Cc1nn(C)cc1N(Cc1ccc(C(F)(F)F)nn1)C(=O)c1cc2c(cc1F)nc(N)c1c(C)ncn12 [Example 193] | 0.1 to 1 µM | < 0.1 µM | – | –

Row | SMILES | IC50 (HCT116 MTAP WT cells; Homo sapiens, HCT-116, 144 h) | IC50 ([1]; HCT116-MTAP null, 144 h) | IC50 (HCT116 MTAP WT cells) | IC50 [1]
25 | Cc1cc(C)c(N(Cc2ccc(C(F)(F)F)cn2)C(=O)c2cc3c(cc2F)nc(N)c2cnc(C)n23)cn1 [Example 194] | 1 to 10 µM | < 0.1 µM | – | –
26 | Cc1nn(C)cc1N(Cc1ccc(OC2COC2)cn1)C(=O)c1cc2c(cc1F)nc(N)c1c(C)ncn12 [Example 195] | 0.1 to 1 µM | < 0.1 µM | – | –
27 | Cc1cnc(C)c(N(Cc2ccc(C(F)(F)F)cn2)C(=O)c2cc3c(cc2F)nc(N)c2cnc(C)n23)c1 [Example 196] | 1 to 10 µM | < 0.1 µM | – | –
28 | COc1ccc(CN(C(=O)c2cc3c(cc2F)nc(N)c2c(C)ncn23)c2cn(C)nc2C)nn1 [Example 197] | 0.1 to 1 µM | < 0.1 µM | – | –
29 | CCn1cc(N(Cc2ccc(OC3CC3)cn2)C(=O)c2cc3c(cn2)nc(N)c2cnc(C)n23)c(C)n1 [Example 199] | 1 to 10 µM | < 0.1 µM | – | –
30 | Cc1ncc2c(N)nc3cc(F)c(C(=O)N(Cc4ccc(C(F)(F)F)cn4)c4ccnn4C)cc3n12 [Example 200] | 0.1 to 1 µM | < 0.1 µM | – | –
31 | Cc1ncc2c(N)nc3cc(F)c(C(=O)N(Cc4ccc(C(F)(F)F)cn4)c4c(F)cnn4C)cc3n12 [Example 201] | 0.1 to 1 µM | < 0.1 µM | – | –
32 | CCn1cc(N(Cc2ccc(C(F)(F)F)nn2)C(=O)c2cc3c(cc2F)nc(N)c2cnc(C)n23)c(C)n1 [Example 202] | 1 to 10 µM | 0.1 to 1 µM | – | –
33 | Cc1nn(C)cc1N(Cc1ncc(C(F)(F)F)s1)C(=O)c1cc2c(cc1F)nc(N)c1cnc(C)n12 [Example 203] | 1 to 10 µM | < 0.1 µM | – | –
34 | Cc1ncc2c(N)nc3cc(F)c(C(=O)N(Cc4ccc(OC5CC5)cn4)c4ccnn4C)cc3n12 [Example 205] | 0.1 to 1 µM | < 0.1 µM | – | –
35 | CCn1nccc1N(Cc1ccc(C(F)(F)F)cn1)C(=O)c1cc2c(cc1F)nc(N)c1cnc(C)n12 [Example 206] | 0.1 to 1 µM | < 0.1 µM | – | –
36 | Cc1ncc2c(N)nc3cc(F)c(C(=O)N(Cc4ccc(F)cn4)c4ccnn4C)cc3n12 [Example 207] | 1 to 10 µM | < 0.1 µM | – | –
37 | Cc1nn(C)cc1N(Cc1ccc(C(F)(F)F)cn1)Cc1cc2c(cc1F)nc(N)c1cnc(C)n12 [Example 208] | 1 to 10 µM | < 0.1 µM | – | –
38 | Cc1ncc2c(N)nc3cc(F)c(C(=O)N(Cc4ccc(C(F)(F)F)cn4)c4cnnn4C)cc3n12 [Example 209] | 1 to 10 µM | < 0.1 µM | – | –
39 | Cc1cn(C)c(N(Cc2ccc(C(F)(F)F)cn2)C(=O)c2cc3c(cc2F)nc(N)c2cnc(C)n23)n1 [Example 210, 4-Amino-N-(1,4-dimethyl-1H-imidazol-2-yl)-7-fluoro-1-methyl-N-((5-(trifluoromethyl)pyridin-2-yl)methyl)imidazolo[1,5-a]quinoxalin-8-carboxamide] | 1 to 10 µM | < 0.1 µM | – | –
40 | Cc1ncc2c(N)nc3cnc(C(=O)N(Cc4ccc(C(F)(F)F)cn4)c4ccnn4C)cc3n12 [Example 211] | 1 to 10 µM | < 0.1 µM | – | –
41 | CCOc1ccc(CN(C(=O)c2cc3c(cc2F)nc(N)c2cnc(C)n23)c2ccnn2C)nc1 [Example 212] | 1 to 10 µM | < 0.1 µM | – | –
42 | Cc1ncc2c(N)nc3cc(F)c(C(=O)N(Cc4cnn(C(F)(F)F)c4)c4ccnn4C)cc3n12 [Example 213] | – | – | 1 to 10 µM | < 0.1 µM
43 | Cc1ccc(CN(C(=O)c2cc3c(cc2F)nc(N)c2cnc(C)n23)c2ccnn2C)nc1 [Example 214] | 1 to 10 µM | < 0.1 µM | – | –
44 | Cc1ncc2c(N)nc3cc(F)c(C(=O)N(Cc4ccc(OC5CC5)nn4)c4ccnn4C)cc3n12 [Example 215] | 1 to 10 µM | < 0.1 µM | – | –
45 | Cc1ncc2c(N)nc3cc(F)c(C(=O)N(Cc4ccc(OC5COC5)cn4)c4ccnn4C)cc3n12 [Example 217] | 1 to 10 µM | < 0.1 µM | – | –
46 | Cc1ncc2c(N)nc3cc(F)c(C(=O)N(Cc4ccc(N5CC(F)(F)C5)cn4)c4ccnn4C)cc3n12 [Example 219] | 1 to 10 µM | < 0.1 µM | – | –
47 | COCCn1cc(CN(C(=O)c2cc3c(cc2F)nc(N)c2cnc(C)n23)c2ccnn2C)cn1 [Example 221] | 1 to 10 µM | 0.1 to 1 µM | – | –
